Data: PubChem BioAssay (NCI)
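Tested at 5 concentrations; 48 h exposure; 96-well plates; endpoints linearly interpolated, else capped at highest concentration. GI50 marks 50% less growth. TGI marks complete inhibition of growth.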

Experiments:
Test in all cases: DTP human tumour cell line panel, 48 h
[1] = tested on: 786-0 renal
[2] = tested on: CCRF-CEM leukemia
[3] = tested on: HCC-2998 colon
[4] = tested on: K-562 leukemia
[5] = tested on: NCI-H522 lung
[6] = tested on: RXF 393 renal
[7] = tested on: SK-MEL-28 melanoma
[8] = tested on: SNB-75 CNS
[9] = tested on: UACC-62 melanoma
[10] = tested on: MCF7 breast

Row | SMILES | GI50 [1] [µM] | TGI [1] [µM] | GI50 [2] [µM] | TGI [2] [µM] | GI50 [3] [µM] | TGI [3] [µM] | GI50 [4] [µM] | TGI [4] [µM] | GI50 [5] [µM] | TGI [5] [µM] | GI50 [6] [µM] | TGI [6] [µM] | GI50 [7] [µM] | TGI [7] [µM] | GI50 [8] [µM] | TGI [8] [µM] | GI50 [9] [µM] | TGI [9] [µM] | TGI [10] [µM] | GI50 [10] [µM]
1 | CC(=O)[CH-]C(=O)c1ccccc1.CC(=O)[CH-]C(=O)c1ccccc1.CN(C)c1ccc([O-])cc1.CN(C)c1ccc([O-])cc1.Cl.[Ti+4] | 22.8 | > 31.6 | 9.65 | > 31.6 | 20.7 | > 31.6 | 9.89 | > 31.6 | 12.3 | 24 | 27.3 | > 31.6 | > 31.6 | > 31.6 | > 31.6 | > 31.6 | > 31.6 | > 31.6 | – | –
2 | COC(=O)C1(C(C)C)CCc2c(OC)ccc(OC)c2C1=O (stereo not given) | – | > 100 | – | > 100 | – | > 100 | – | > 100 | – | > 100 | – | – | – | > 100 | – | – | – | > 100 | – | –
3 | O=C(CC(=O)c1cccc2ccccc12)C(=O)Nc1ccc(Cl)cc1 | – | > 100 | – | > 100 | – | > 100 | – | > 100 | – | > 100 | – | – | – | – | – | – | – | > 100 | – | –
4 | COc1cc2cc(OC)c3cc4c(cc3c2c(OC)c1OC)OCO4 | – | > 90.4 | – | 37.9 | – | 25.8 | – | 48 | – | 56.6 | – | > 100 | – | > 57.6 | – | > 46.1 | – | > 64.4 | – | –
5 | CCn1c(C)nn2c(=O)c3ccccc3nc2c1=O | – | > 100 | – | > 100 | – | > 100 | – | > 100 | – | – | – | – | – | > 100 | – | > 100 | – | > 100 | – | –
6 | CC1(C)C(=O)/C=C\C(=O)C(C)(C)C2=CC=C(O2)C(C)(C)C(=O)/C=C\C(=O)C(C)(C)C2=CC=C1O2 | – | > 100 | – | > 100 | – | > 100 | – | > 100 | – | > 100 | – | > 100 | – | > 100 | – | – | – | – | – | –
7 | Cc1nc2c(ccc3ncccc32)[nH]1 | – | > 100 | – | > 100 | – | > 100 | – | > 100 | – | > 100 | – | > 100 | – | > 100 | – | > 100 | – | > 100 | – | –
8 | CCCC1C(=O)CCc2c(OC)ccc(OC)c21 (stereo not given) | – | > 100 | – | > 100 | – | > 100 | – | > 100 | – | – | – | > 100 | – | – | – | > 100 | – | > 100 | – | –
9 | COC(=O)CC[N+]1=CCC(c2ccccc2)(c2ccccc2)O1 | – | > 100 | – | – | – | > 100 | – | > 100 | – | > 100 | – | > 100 | – | > 100 | – | – | – | > 100 | > 100 | –
10 | O=C(O)CCNCCCNCCC(=O)O | – | > 100 | – | > 100 | – | > 100 | – | > 100 | – | > 100 | – | > 100 | – | > 100 | – | > 100 | – | > 100 | – | –
11 | COC(=O)/C(C#N)=C1\NC(=O)c2ccccc21 | – | > 100 | – | > 100 | – | > 100 | – | > 100 | – | > 100 | – | > 100 | – | > 100 | – | 76.9 | – | > 100 | – | –
12 | CCN1CCN(Cc2ccc(NC(=O)c3cccc(C#Cc4cccc5[nH]nc(N)c45)c3)cc2C(F)(F)F)CC1 | 0.402 | 1.32 | 0.778 | 3.96 | – | – | – | 0.154 | – | – | 0.287 | 0.918 | 0.568 | 1.78 | 0.184 | 0.89 | 0.509 | 1.77 | – | –
13 | CCOC(=O)C(C)(C)Oc1ccc2c(-c3ccccc3)cc(=O)oc2c1 | – | > 100 | – | 63.5 | – | > 100 | – | > 100 | – | – | – | – | – | > 100 | – | 56.5 | – | 38.6 | – | –
14 | Cc1cc(NS(=O)(=O)c2ccc(Nc3c4ccccc4nc4c(C(=O)N5CCN(CCOS(C)(=O)=O)CC5)cccc34)cc2)no1 | – | > 100 | – | > 100 | – | > 100 | – | > 100 | – | – | – | > 100 | – | > 100 | – | > 100 | – | > 100 | – | –
15 | COc1cc2ccnc([C@@H](OC(=O)c3ccccc3)c3ccc(OC)c(OC)c3OC)c2cc1OC | – | > 100 | – | > 100 | – | > 100 | – | > 100 | – | > 100 | – | > 100 | – | > 100 | – | > 100 | – | > 100 | – | –
16 | Cc1ccsc1C(=S)Nc1ccc(Cl)c(/C=N/OC(C)(C)C)c1 | – | 57.2 | – | > 100 | – | 48.5 | – | – | – | > 100 | – | 36.6 | – | > 100 | – | – | – | > 100 | > 100 | –
17 | COC1/C=C/OC2(C)Oc3c(C)c(O)c4c(O)c(c(/C=N/Nc5ccc([N+](=O)[O-])cc5[N+](=O)[O-])c(O)c4c3C2=O)NC(=O)C(C)=C/C=C/C(C)C(O)C(C)C(O)C(C)C(OC(C)=O)C1C (stereo not given) | 1.67 | 7.02 | 1.55 | > 50 | 5.05 | 11.6 | – | – | – | – | 0.899 | 1.66 | 1.45 | 5.23 | 1.8 | 10.3 | 1.37 | 5.08 | > 50 | 2
18 | O=C(Nc1nc2ccc([N+](=O)[O-])cc2s1)C(=O)C(C1OC(=O)c2ccccc21)[N+](=O)[O-] (stereo not given) | – | > 100 | – | > 100 | – | > 100 | – | > 100 | – | – | – | > 100 | – | > 100 | – | > 100 | – | > 100 | – | –
19 | CC(=O)OC1OC([C@@H]2c3cccc(O)c3C(=O)c3c(O)cc(C)cc32)C(O)C(O)C1O (stereo not given in full) | 0.13 | 1.27 | 0.0494 | 1.63 | < 0.01 | – | 0.0216 | 1.39 | – | 0.382 | 0.35 | 1.58 | 0.0514 | 3.6 | – | – | 0.0211 | 1.52 | 2.78 | 0.282
20 | CCC[CH2][Sn]([CH2]CCC)([S]c1cccc2cccnc12)[S]c1cccc2cccnc12 | 0.227 | 0.56 | 0.035 | 0.285 | 0.144 | 0.3 | 0.0642 | 0.611 | – | – | – | – | 0.16 | 0.472 | 0.234 | 0.926 | 0.279 | 0.959 | – | –
